Experimental data from patent publication US4066753A, “Neomycin and paromomycin derivatives” (Canadian Patents and Development Limited, priority 1976, dated 1978).
In brackets after ≈: the same amount, converted by molar mass. Where two headings read alike, the source gives them in different places.

Tests used:
S. pyogenes S B352 = test: IN VITRO antibacterial activity, S. pyogenes S B352; format: cell-based; conditions: Streptococcus pyogenes, SB352; S. pyogenes S B352; nutrient broth, 24 hours at 37° C; read-out: MIC
Procedure: (§1) In the Tables above MIC stands for minimum inhibitory concentration and
(§2) the results were obtained by providing halving dilutions of the test
(§3) compound in nutrient broth (concentrations usually range from 1/10,000 to
(§4) 1/320,000). These solutions are inoculated with the test organism,
(§5) incubated for 24 hours at 37° C and then examined for the presence
(§6) of growth. A test compound found to have a minimum inhibitory
(§7) concentration (MIC) of 1/160,000 is generally considered as a lead.

S. pyogenes R 353 = test: IN VITRO antibacterial activity, S. pyogenes R 353; format: cell-based; conditions: Streptococcus pyogenes, R353; S. pyogenes R 353; nutrient broth, 24 hours at 37° C; read-out: MIC
Procedure: as §1, §2, §3, §4, §5, §6, §7

S. fecalis 353 = test: IN VITRO antibacterial activity, S. fecalis 353; format: cell-based; conditions: S. fecalis 353; nutrient broth, 24 hours at 37° C; read-out: MIC
Procedure: as §1, §2, §3, §4, §5, §6, §7

E. Coli 198 (ATCC 1/229) = test: IN VITRO antibacterial activity, E. Coli 198 (ATCC 1/229); format: cell-based; conditions: Escherichia coli, ATCC1; E. Coli 198 (ATCC 1/229); nutrient broth, 24 hours at 37° C; read-out: MIC
Procedure: as §1, §2, §3, §4, §5, §6, §7

A. aerogenes 357 = test: IN VITRO antibacterial activity, A. aerogenes 357; format: cell-based; conditions: Klebsiella aerogenes; A. aerogenes 357; nutrient broth, 24 hours at 37° C; read-out: MIC
Procedure: as §1, §2, §3, §4, §5, §6, §7

S. pullorum 358 = test: IN VITRO antibacterial activity, S. pullorum 358; format: cell-based; conditions: Salmonella enterica; S. pullorum 358; nutrient broth, 24 hours at 37° C; read-out: MIC
Procedure: as §1, §2, §3, §4, §5, §6, §7

P. aeruginosa 359 = test: IN VITRO antibacterial activity, P. aeruginosa 359; format: cell-based; conditions: Pseudomonas aeruginosa; P. aeruginosa 359; nutrient broth, 24 hours at 37° C; read-out: MIC
Procedure: as §1, §2, §3, §4, §5, §6, §7

Pr. mirabilis 360 = test: IN VITRO antibacterial activity, Pr. mirabilis 360; format: cell-based; conditions: Proteus mirabilis; Pr. mirabilis 360; nutrient broth, 24 hours at 37° C; read-out: MIC
Procedure: as §1, §2, §3, §4, §5, §6, §7

Pr. vulgaris 316 = test: IN VITRO antibacterial activity, Pr. vulgaris 316; format: cell-based; conditions: Proteus vulgaris; Pr. vulgaris 316; nutrient broth, 24 hours at 37° C; read-out: MIC
Procedure: as §1, §2, §3, §4, §5, §6, §7

[1] = test system: Kl. pneumoniae 855 (ATCC 10081); test: IN VITRO antibacterial activity, Kl. pneumoniae 855 (ATCC 10081); format: cell-based; conditions: Klebsiella pneumoniae, ATCC10081, nutrient broth, 24 hours at 37° C
Procedure: as §1, §2, §3, §4, §5, §6, §7

[2] = test system: S. marcesceus 854 (ATCC → 103); test: IN VITRO antibacterial activity, S. marcesceus 854 (ATCC → 103); format: cell-based; conditions: S. marcesceus 854 (ATCC → 103); nutrient broth, 24 hours at 37° C; read-out: MIC
Procedure: as §1, §2, §3, §4, §5, §6, §7

P. aeruginosa 87442 = test: IN VITRO antibacterial activity against resistant organisms, P. aeruginosa 87442; format: cell-based
Procedure: as §1, §2, §3, §4, §5, §6, §7

P. aeruginosa 377 = test: IN VITRO antibacterial activity against resistant organisms, P. aeruginosa 377; format: cell-based
Procedure: as §1, §2, §3, §4, §5, §6, §7

E. coli B989 = test: IN VITRO antibacterial activity against resistant organisms, E. coli B989; format: cell-based; conditions: Escherichia coli; resistant organism E. coli B989; nutrient broth, 24 hours at 37° C; read-out: MIC
Procedure: as §1, §2, §3, §4, §5, §6, §7

E. coli B1002 = test: IN VITRO antibacterial activity against resistant organisms, E. coli B1002; format: cell-based; conditions: Escherichia coli
Procedure: as §1, §2, §3, §4, §5, §6, §7

in vivo = conditions: mouse, iv, in mice (i.v), acute toxicity
[3] = test system: strains of E. Coli resistant to neomycin and paromomycin; test: Antibacterial activity against resistant E. Coli; format: cell-based
Procedure: as §1, §2, §3, §4, §5, §6, §7

[4] = test system: strains of P. Aeruginosa resistant to neomycin B and paromomycin I; test: Antibacterial activity against resistant P. Aeruginosa; format: cell-based
Procedure: as §1, §2, §3, §4, §5, §6, §7

S. pyogenes S = test: IN VITRO antibacterial activity, S. pyogenes S; format: cell-based; conditions: Streptococcus pyogenes; S. pyogenes S; nutrient broth, 24 hours at 37° C; read-out: MIC
Procedure: as §1, §2, §3, §4, §5, §6, §7

S. pyogenes R = test: IN VITRO antibacterial activity, S. pyogenes R; format: cell-based; conditions: Streptococcus pyogenes; S. pyogenes R; nutrient broth, 24 hours at 37° C; read-out: MIC
Procedure: as §1, §2, §3, §4, §5, §6, §7

S. fecalis = test: IN VITRO antibacterial activity, S. fecalis; format: cell-based; conditions: S. fecalis; nutrient broth, 24 hours at 37° C; read-out: MIC
Procedure: as §1, §2, §3, §4, §5, §6, §7

E. coli 198 = test: IN VITRO antibacterial activity, E. coli 198; format: cell-based; conditions: Escherichia coli; E. coli 198; nutrient broth, 24 hours at 37° C; read-out: MIC
Procedure: as §1, §2, §3, §4, §5, §6, §7

A. aerogenes = test: IN VITRO antibacterial activity, A. aerogenes; format: cell-based; conditions: Klebsiella aerogenes; A. aerogenes; nutrient broth, 24 hours at 37° C; read-out: MIC
Procedure: as §1, §2, §3, §4, §5, §6, §7

S. pullorm = test: IN VITRO antibacterial activity, S. pullorm; format: cell-based; conditions: S. pullorm; nutrient broth, 24 hours at 37° C; read-out: MIC
Procedure: as §1, §2, §3, §4, §5, §6, §7

P. aeruginosa = test: IN VITRO antibacterial activity, P. aeruginosa; format: cell-based; conditions: Pseudomonas aeruginosa; P. aeruginosa; nutrient broth, 24 hours at 37° C; read-out: MIC
Procedure: as §1, §2, §3, §4, §5, §6, §7

P. mirabilis = test: IN VITRO antibacterial activity, P. mirabilis; format: cell-based; conditions: Proteus mirabilis; P. mirabilis; nutrient broth, 24 hours at 37° C; read-out: MIC
Procedure: as §1, §2, §3, §4, §5, §6, §7

K. pneumoniae = test: IN VITRO antibacterial activity, K. pneumoniae; format: cell-based; conditions: Klebsiella pneumoniae; K. pneumoniae; nutrient broth, 24 hours at 37° C; read-out: MIC
Procedure: as §1, §2, §3, §4, §5, §6, §7

S. marcesceus = test: IN VITRO antibacterial activity, S. marcesceus; format: cell-based; conditions: S. marcesceus; nutrient broth, 24 hours at 37° C; read-out: MIC
Procedure: as §1, §2, §3, §4, §5, §6, §7

E. coli B996 = test: IN VITRO antibacterial activity, E. coli B996 (resistant to Kanamycin and paromomycin); format: cell-based; conditions: Escherichia coli, nutrient broth, 24 hours at 37° C
Procedure: as §1, §2, §3, §4, §5, §6, §7

NC[C@@H]1O[C@H](O[C@H]2[C@@H](O)[C@H](O[C@@H]3[C@@H](O)[C@H](N)C[C@H](N)[C@H]3O[C@H]3O[C@H](CN)[C@@H](O)[C@H](O)[C@H]3N)O[C@@H]2CN)[C@H](N)[C@@H](O)[C@@H]1O [5"-Amino-5"-deoxyneomycin B, 5"-amino-5"-deoxyneomycin B]
MIC (S. pyogenes S B352): < 0.1 µg/mL
MIC (S. pyogenes R 353): < 0.1 µg/mL
MIC (S. fecalis 353): 0.8 µg/mL (≈ 1.3 µM)
MIC (E. Coli 198 (ATCC 1/229)): 0.8 µg/mL (≈ 1.3 µM)
MIC (A. aerogenes 357): 0.8 µg/mL (≈ 1.3 µM)
MIC (S. pullorum 358): 0.4 µg/mL (≈ 0.652 µM)
MIC (P. aeruginosa 359): 1.6 µg/mL (≈ 2.61 µM)
MIC (Pr. mirabilis 360): 0.8 µg/mL (≈ 1.3 µM)
MIC (Pr. vulgaris 316): 0.8 µg/mL (≈ 1.3 µM)
MIC [1]: 0.4 µg/mL (≈ 0.652 µM)
MIC [2]: 0.4 µg/mL (≈ 0.652 µM)
MIC (P. aeruginosa 87442; Pseudomonas aeruginosa, resistant organism P. aeruginosa 87442, nutrient broth, 24 hours at 37° C, read-out: MIC): 0.8 µg/mL (≈ 1.3 µM)
MIC (P. aeruginosa 377; Pseudomonas aeruginosa, resistant organism P. aeruginosa 377, nutrient broth, 24 hours at 37° C, read-out: MIC): 1.6 µg/mL (≈ 2.61 µM)
MIC (E. coli B989): 1.6 µg/mL (≈ 2.61 µM)
MIC (E. coli B1002; resistant organism E. coli B1002, nutrient broth, 24 hours at 37° C, read-out: MIC): 3.2 µg/mL (≈ 5.21 µM)
LD50 (in vivo): 60 to 80 mg/kg
antibacterial activity against resistant E. Coli [3]: particularly effective
antibacterial activity against resistant P. Aeruginosa [4]: particularly effective

NC[C@@H]1O[C@H](O[C@H]2[C@@H](O)[C@H](O[C@@H]3[C@@H](O)[C@H](N)C[C@H](N)[C@H]3O[C@H]3O[C@H](CO)[C@@H](O)[C@H](O)[C@H]3N)O[C@@H]2CN)[C@H](N)[C@@H](O)[C@@H]1O [5"-amino-5"-deoxyparomomycin I]
MIC (S. pyogenes S): < 0.2 µg/mL
MIC (S. pyogenes R): 0.4 µg/mL (≈ 0.651 µM)
MIC (S. fecalis): 6.4 µg/mL (≈ 10.4 µM)
MIC (E. coli 198): 6.4 µg/mL (≈ 10.4 µM)
MIC (A. aerogenes): 1.6 µg/mL (≈ 2.6 µM)
MIC (S. pullorm): 0.8 µg/mL (≈ 1.3 µM)
MIC (P. aeruginosa): 12.5 µg/mL (≈ 20.3 µM)
MIC (P. mirabilis): 1.6 µg/mL (≈ 2.6 µM)
MIC (K. pneumoniae): 0.8 µg/mL (≈ 1.3 µM)
MIC (S. marcesceus): 0.8 µg/mL (≈ 1.3 µM)
MIC (E. coli B996): 12.5 µg/mL (≈ 20.3 µM)
antibacterial activity against resistant E. Coli [3]: particularly effective
antibacterial activity against resistant P. Aeruginosa [4]: particularly effective

NC[C@H]1O[C@H](O[C@H]2[C@H](O)[C@@H](O[C@H]3O[C@H](CO)[C@@H](O)[C@H](N)[C@H]3O)[C@H](N)C[C@@H]2N)[C@H](O)[C@@H](O)[C@@H]1O [Kanamycin]
MIC (P. aeruginosa 87442; Pseudomonas aeruginosa, 87442, 24 h): 0.8 µg/mL (≈ 1.65 µM)
MIC (P. aeruginosa 377; Pseudomonas aeruginosa, 377, 24 h): 3.2 µg/mL (≈ 6.6 µM)
MIC (E. coli B989): 100 µg/mL (≈ 206 µM)
MIC (E. coli B1002; B1002, 24 h): < 100 µg/mL
